Measured values as given in patent US7851617B2, “Indole derivatives” (Mitsubishi Tanabe Pharma Corporation, priority 2006, dated 2010).
Read-outs that look alike come from different tables or passages of the source.

Key:
[1] = test system: Sprague-Dawley (SD) rats; assay: Urinary glucose excretion test in rats; assay type: in vivo, rat; settings: male SD rats, 30 mg/kg by oral gavage, urine collected for 24 hours, daily amount of glucose excreted per individual
Protocol: Compounds described in the above examples were used for the Urinary glucose excretion test in rats.
6-week-old male Sprague-Dawley (SD) rats were housed in individual metabolic cages with free access to food and water from 2 days prior to the experiment. On the morning of the experiment, rats were administered vehicle (0.2% carboxymethyl cellulose solution containing 0.2% Tween80) or test compounds (30 mg/kg) by oral gavage at a volume of 10 ml/kg. Then, urine of the rat was collected for 24 hours, and the urine volume was measured. Subsequently, the glucose concentration in urine was quantified using the enzymatic assay kit and the daily amount of glucose excreted in urine per individual was calculated.

[2] = target: T1, human SGLT2 (Homo sapiens, UniProt P31639); assay: Assay for SGLT2 inhibition (14C-AMG uptake); assay type: cell-based
T1 construct: expressed in transfected cells; host or cells: CHOK1 cells (selected with Geneticin)
T1 sequence (P31639 1-672): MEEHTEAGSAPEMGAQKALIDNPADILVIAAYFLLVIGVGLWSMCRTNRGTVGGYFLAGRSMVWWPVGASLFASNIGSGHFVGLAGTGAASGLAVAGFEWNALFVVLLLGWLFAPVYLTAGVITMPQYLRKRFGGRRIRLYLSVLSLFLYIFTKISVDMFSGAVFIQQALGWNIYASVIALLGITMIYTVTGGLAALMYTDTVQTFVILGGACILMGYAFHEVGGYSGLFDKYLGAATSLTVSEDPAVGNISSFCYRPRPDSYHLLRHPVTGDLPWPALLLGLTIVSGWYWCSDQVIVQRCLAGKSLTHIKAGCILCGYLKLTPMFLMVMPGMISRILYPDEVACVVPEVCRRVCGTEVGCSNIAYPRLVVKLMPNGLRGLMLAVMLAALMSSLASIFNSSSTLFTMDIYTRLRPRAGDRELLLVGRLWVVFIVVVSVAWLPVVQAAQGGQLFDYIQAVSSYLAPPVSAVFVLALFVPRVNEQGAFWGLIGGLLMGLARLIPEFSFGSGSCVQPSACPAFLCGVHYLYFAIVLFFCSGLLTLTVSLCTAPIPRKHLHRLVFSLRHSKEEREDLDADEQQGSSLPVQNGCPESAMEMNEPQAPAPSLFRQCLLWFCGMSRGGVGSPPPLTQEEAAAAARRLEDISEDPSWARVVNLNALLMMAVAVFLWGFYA
Protocol: Compounds described in the above examples were used for the SGLT2 inhibition assay. CHOK1 cells expressing human SGLT2 were seeded in 24-well plates at a density of 400,000 cells/well in F-12 nutrient mixture (Ham's F-12) containing 10% fetal bovine serum, 400 μg/ml Geneticin, 50 units/ml sodium penicillin G (Gibco-BRL) and 50 μg/ml streptomycin sulfate. After 2 days of culture at 37° C. in a humidified atmosphere containing 5% CO2, cells were washed once with the assay buffer (137 mM NaCl, 5 mM KCl, 1 mM CaCl2, 1 mM MgCl2, 50 mM Hepes, and 20 mM Tris, pH 7.4) and incubated with 250 μl of the buffer containing test compounds for 10 min at 37° C. Test compounds were dissolved in DMSO. The final concentration of DMSO was 0.5%. The transport reaction was initiated by addition of 50 μl [^14C]-methyl-α-D-glucopyranoside (^14C-AMG) solution (final concentration, 0.5 mM). After incubation for 2 hours at 37° C., the uptake was stopped by aspiration of the incubation mixture, the cells were washed three times with ice-cold PBS. Then, cells were solubilized with 0.3 N NaOH and aliquots were taken for determination of radioactivity by a liquid scintillation counter. Nonspecific AMG uptake was defined as that which occurred in the presence of 100 μM of phlorizin, a specific inhibitor of sodium-dependent glucose cotransporter. Specific uptake was normalized for the protein concentrations measured by the method of Bradford. The 50% inhibitory concentration (IC50) values were calculated from dose-response curves by least square method.

[3] = CHOK1 cells expressing human SGLT2, 14C-AMG uptake, 2 hours at 37° C., read-out: IC50

| SMILES | Urinary glucose [1] | IC50 [2] | IC50 [2, 3] |
| --- | --- | --- | --- |
| OC[C@H]1O[C@@H](n2cc(Cc3ccc(C4CC4)cc3)c3c(Cl)cccc32)[C@H](O)[C@@H](O)[C@@H]1O [Example 2, 4-Chloro-3-(4-cyclopropylphenyl-methyl)-1-(β-D-glucopyranosyl)indole] | A (A≧2400 mg) | 2.3 nM | – |
| OC[C@H]1O[C@@H](n2cc(Cc3ccc(C4CC4)cc3)c3c(F)cc(F)cc32)[C@H](O)[C@@H](O)[C@@H]1O [Example 3, 3-(4-Cyclopropylphenylmethyl)-4,6-difluoro-1-(β-D-gluco-pyranosyl) indole] | B (2400 mg>B≧2000 mg) | – | 2.8 nM |
| OC[C@H]1O[C@@H](n2cc(Cc3ccc(C4CC4)cc3)c3c(Cl)cc(F)cc32)[C@H](O)[C@@H](O)[C@@H]1O [Example 4, 4-Chloro-3-(4-cyclopropylphenylmethyl)-6-fluoro-1-(β-D-gluco-pyranosyl) indole] | C (2000 mg>C) | – | 3.6 nM |
| OC[C@H]1O[C@@H](n2cc(Cc3ccc(C4CC4)cc3)c3c(F)cccc32)[C@H](O)[C@@H](O)[C@@H]1O [Example 1, 3-(4-Cyclopropylphenylmethyl)-4-fluoro-1-(β-D-gluco-pyranosyl)indole] | B (2400 mg>B≧2000 mg) | – | 1.9 nM |
